Key:
[1] = target: Metabotropic glutamate receptor 1 (Homo sapiens) (UniProt Q13255); experiment: Antagonist activity at cloned mGluR1 expressed in CHO cells co-transfected with chimeric G protein Gqi9 assessed as inhibition of glutamate-induced intracellular inositol phosphate accumulation at 10 uM by phosphoinositide hydrolysis assay; type: functional, cell-based
[2] = target: Metabotropic glutamate receptor 6 (Homo sapiens) (UniProt O15303); experiment: Antagonist activity at cloned mGluR6 expressed in CHO cells co-transfected with chimeric G protein Gqi9 assessed as inhibition of glutamate-induced intracellular inositol phosphate accumulation at 10 uM by phosphoinositide hydrolysis assay; type: functional, cell-based
[3] = target: T1, Metabotropic glutamate receptor 5 (Homo sapiens, UniProt P41594); experiment: Antagonist activity at cloned mGluR5 expressed in CHO cells co-transfected with chimeric G protein Gqi9 assessed as inhibition of glutamate-induced intracellular inositol phosphate accumulation at 10 uM by phosphoinositide hydrolysis assay; type: functional, cell-based
Target sequence in this assay (P41594 21-1212 limits assumed): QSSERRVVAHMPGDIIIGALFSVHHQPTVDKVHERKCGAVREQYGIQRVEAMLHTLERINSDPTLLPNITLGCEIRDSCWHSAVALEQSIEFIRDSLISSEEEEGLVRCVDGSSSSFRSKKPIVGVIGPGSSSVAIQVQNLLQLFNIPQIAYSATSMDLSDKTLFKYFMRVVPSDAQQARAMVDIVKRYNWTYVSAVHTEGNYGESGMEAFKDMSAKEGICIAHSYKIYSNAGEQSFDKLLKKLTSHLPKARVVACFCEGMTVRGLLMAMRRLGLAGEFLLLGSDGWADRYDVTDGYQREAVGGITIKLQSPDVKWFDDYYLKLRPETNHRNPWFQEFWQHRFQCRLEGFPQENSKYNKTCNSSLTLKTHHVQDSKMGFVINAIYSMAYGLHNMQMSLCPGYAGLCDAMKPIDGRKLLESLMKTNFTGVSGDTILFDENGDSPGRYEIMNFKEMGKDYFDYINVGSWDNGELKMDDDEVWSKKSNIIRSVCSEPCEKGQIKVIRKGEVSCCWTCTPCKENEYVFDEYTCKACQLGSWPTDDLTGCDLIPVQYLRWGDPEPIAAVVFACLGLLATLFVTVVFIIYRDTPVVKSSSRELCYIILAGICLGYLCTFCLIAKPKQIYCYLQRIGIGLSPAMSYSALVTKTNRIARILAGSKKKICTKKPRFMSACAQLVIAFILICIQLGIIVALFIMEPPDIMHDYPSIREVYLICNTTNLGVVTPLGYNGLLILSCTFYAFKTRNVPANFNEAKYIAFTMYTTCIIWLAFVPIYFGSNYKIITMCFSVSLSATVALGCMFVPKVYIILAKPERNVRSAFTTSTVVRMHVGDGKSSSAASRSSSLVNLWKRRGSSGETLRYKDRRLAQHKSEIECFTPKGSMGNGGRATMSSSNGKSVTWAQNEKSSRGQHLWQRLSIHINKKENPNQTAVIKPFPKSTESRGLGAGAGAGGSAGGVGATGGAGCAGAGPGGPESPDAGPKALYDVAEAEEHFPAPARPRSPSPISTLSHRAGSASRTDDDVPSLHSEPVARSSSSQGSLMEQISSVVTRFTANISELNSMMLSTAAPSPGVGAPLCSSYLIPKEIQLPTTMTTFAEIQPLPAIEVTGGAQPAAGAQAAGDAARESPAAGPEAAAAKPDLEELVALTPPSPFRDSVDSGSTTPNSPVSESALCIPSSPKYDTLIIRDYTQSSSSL

[4] = target: T1, Metabotropic glutamate receptor 5; experiment: Displacement of [3H]MPEP from cloned mGluR5 expressed in HEK293T cells by scintillation counting; type: cell-based, HEK-293T
[5] = target: T2, Metabotropic glutamate receptor 5 (Rattus norvegicus, UniProt P31424); experiment: Displacement of [3H]MPEP from rat brain recombinant mGluR5 expressed in HEK293T cells by scintillation counting; type: cell-based, HEK-293T
T2 sequence (P31424 whole entry): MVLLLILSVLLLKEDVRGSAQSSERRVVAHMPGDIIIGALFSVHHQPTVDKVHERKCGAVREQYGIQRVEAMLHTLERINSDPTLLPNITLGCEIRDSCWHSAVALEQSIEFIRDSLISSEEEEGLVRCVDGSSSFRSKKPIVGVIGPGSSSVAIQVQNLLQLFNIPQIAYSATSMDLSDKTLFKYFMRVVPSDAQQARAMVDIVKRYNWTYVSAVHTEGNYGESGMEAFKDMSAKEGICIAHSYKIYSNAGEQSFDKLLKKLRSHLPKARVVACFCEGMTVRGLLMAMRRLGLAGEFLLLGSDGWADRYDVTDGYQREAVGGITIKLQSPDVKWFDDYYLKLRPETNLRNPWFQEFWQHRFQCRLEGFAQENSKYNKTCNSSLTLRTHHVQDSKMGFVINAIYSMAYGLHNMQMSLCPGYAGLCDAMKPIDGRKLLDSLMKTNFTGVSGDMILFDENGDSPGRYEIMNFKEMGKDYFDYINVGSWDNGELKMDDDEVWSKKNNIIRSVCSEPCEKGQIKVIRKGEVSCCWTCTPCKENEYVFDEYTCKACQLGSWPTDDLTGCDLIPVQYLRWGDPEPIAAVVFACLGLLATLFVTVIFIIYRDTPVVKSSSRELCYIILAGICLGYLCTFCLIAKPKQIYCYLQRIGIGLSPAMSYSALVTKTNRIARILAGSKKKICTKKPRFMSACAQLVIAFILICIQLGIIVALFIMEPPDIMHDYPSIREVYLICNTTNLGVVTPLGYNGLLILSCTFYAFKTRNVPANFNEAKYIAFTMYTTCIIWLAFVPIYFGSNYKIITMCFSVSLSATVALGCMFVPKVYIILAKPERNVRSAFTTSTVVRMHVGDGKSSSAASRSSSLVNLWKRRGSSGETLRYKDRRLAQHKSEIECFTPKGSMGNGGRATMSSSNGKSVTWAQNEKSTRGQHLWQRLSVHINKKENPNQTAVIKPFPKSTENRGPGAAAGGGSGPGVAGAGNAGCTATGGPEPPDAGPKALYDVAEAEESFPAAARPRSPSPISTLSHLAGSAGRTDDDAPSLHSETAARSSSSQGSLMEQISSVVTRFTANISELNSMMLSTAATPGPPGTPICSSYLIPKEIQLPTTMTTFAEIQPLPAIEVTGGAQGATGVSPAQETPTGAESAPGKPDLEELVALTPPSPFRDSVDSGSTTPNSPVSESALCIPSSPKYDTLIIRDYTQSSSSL

[6] = target: T2, Metabotropic glutamate receptor 5; experiment: Antagonist activity at rat mGluR5 expressed in HEK293A cells assessed as glutamate-induced calcium flux preincubated for 140 sec before glutamate challenge by calcium fluorescence assay; type: functional, cell-based, HEK293-A
[7] = target: T3, Sodium-dependent noradrenaline transporter (Homo sapiens, UniProt P23975); experiment: Displacement of [125I]RTI55 from human NET expressed in HEK293 cells; type: cell-based
[8] = target: T3, Sodium-dependent noradrenaline transporter; experiment: Inhibition of norepinephrine uptake at human NET expressed in HEK293 cells; type: cell-based
[9] = target: T4, Sodium-dependent serotonin transporter (Homo sapiens, UniProt P31645); experiment: Inhibition of serotonin uptake at human SERT expressed in HEK293 cells; type: cell-based
T4 sequence (P31645 whole entry): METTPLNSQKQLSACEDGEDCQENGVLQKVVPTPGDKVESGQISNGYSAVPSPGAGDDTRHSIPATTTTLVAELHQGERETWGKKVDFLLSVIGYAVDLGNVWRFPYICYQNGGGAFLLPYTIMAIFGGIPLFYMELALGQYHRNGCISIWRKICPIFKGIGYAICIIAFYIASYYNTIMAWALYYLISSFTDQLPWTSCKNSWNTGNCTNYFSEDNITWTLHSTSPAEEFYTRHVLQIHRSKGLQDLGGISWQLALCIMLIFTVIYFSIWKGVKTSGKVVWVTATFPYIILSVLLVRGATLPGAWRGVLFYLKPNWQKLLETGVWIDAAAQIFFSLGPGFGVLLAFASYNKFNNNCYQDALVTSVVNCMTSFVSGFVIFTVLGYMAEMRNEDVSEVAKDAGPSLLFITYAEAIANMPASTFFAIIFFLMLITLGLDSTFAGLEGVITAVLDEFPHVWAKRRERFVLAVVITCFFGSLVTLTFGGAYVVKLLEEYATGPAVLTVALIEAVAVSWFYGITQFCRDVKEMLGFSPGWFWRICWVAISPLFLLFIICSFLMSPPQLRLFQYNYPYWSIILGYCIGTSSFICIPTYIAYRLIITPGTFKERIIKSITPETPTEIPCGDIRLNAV

[10] = target: T5, Sodium-dependent dopamine transporter (Homo sapiens, UniProt Q01959); experiment: Inhibition of dopamine uptake at human DAT expressed in HEK293 cells; type: cell-based
T5 sequence (Q01959 whole entry): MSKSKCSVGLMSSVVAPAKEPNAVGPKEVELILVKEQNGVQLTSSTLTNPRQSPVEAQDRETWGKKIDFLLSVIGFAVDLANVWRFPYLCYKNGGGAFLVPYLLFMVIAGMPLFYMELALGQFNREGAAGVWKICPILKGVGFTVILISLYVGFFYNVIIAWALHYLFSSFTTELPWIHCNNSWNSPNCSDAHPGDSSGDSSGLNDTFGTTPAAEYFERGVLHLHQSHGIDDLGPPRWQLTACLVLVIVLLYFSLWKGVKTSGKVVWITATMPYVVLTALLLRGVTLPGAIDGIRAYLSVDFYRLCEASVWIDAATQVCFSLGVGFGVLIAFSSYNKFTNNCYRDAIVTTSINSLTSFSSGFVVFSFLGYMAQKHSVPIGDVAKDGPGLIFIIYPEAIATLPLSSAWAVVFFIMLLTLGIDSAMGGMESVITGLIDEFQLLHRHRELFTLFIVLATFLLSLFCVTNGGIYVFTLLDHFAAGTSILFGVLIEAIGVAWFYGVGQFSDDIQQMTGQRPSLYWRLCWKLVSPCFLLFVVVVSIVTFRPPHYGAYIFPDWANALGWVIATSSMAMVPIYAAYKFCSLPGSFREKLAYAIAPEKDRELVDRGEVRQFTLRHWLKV

[11] = target: T4, Sodium-dependent serotonin transporter; experiment: Displacement of [125I]RTI55 from human SERT expressed in HEK293 cells; type: cell-based
[12] = target: T5, Sodium-dependent dopamine transporter; experiment: Displacement of [125I]RTI55 from human DAT expressed in HEK293 cells; type: cell-based

Metabotropic glutamate receptor 1 (Homo sapiens), sequence (Q13255 19-1194 limits assumed): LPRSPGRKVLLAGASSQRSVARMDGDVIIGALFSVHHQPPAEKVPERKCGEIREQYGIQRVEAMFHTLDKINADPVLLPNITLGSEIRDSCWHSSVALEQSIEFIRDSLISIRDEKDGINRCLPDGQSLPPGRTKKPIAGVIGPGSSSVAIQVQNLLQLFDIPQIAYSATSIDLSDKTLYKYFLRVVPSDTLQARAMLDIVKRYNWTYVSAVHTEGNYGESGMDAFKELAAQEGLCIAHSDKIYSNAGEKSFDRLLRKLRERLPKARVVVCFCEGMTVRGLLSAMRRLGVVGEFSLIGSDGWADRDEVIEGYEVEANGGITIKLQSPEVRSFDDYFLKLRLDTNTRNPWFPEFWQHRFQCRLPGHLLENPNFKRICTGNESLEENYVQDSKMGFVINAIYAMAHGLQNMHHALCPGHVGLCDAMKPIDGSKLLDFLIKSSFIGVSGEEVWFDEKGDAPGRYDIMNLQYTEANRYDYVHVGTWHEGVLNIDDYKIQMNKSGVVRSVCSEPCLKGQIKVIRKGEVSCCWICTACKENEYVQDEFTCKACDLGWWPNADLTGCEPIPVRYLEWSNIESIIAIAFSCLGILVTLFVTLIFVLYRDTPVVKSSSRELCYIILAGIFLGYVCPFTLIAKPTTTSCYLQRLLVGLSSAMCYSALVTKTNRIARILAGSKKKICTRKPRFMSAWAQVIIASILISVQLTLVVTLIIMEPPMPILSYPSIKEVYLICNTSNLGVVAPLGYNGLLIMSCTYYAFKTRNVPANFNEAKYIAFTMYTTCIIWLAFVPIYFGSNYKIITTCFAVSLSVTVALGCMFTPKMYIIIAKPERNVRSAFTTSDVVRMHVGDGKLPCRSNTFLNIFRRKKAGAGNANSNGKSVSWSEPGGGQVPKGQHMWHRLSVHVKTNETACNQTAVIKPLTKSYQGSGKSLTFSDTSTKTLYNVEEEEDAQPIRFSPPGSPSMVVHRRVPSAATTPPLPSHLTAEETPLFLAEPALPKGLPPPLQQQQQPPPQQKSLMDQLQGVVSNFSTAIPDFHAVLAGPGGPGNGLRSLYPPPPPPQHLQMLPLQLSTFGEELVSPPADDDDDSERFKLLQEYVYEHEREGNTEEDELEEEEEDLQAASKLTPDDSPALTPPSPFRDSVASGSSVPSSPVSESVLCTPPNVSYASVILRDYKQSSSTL

Row | Structure (SMILES) | inhibition [1] | inhibition [2] | inhibition [3] | Ki [4] | Ki [5] | IC50 [6] | Ki [7] | Ki [8] | Ki [9] | Ki [10] | Ki [11] | Ki [12]
1 | Cc1nc(C#Cc2ccc(-c3cccnc3)nc2)cs1 | < 70% | < 70% | > 70% |  |  |  |  |  |  |  |  | 
2 | Cc1nc(C#Cc2ccc(-c3cccnc3)c(F)c2)cs1 | < 70% | < 70% | > 70% |  |  |  | > 6000 nM | > 6000 nM | > 6000 nM | > 6000 nM | > 6000 nM | > 6000 nM
3 | Cc1nc(C#Cc2cc(F)cc(C#N)c2)cs1 | < 70% | < 70% | > 70% | 0.9 nM |  | 0.813 nM |  |  |  |  |  | 
4 | Cc1cccc(NC(=O)c2cc(F)cc(F)c2)n1 | < 70% | < 70% | ≤ 70% | 7580 nM |  |  |  |  |  |  |  | 
5 | Cc1cccc(NC(=O)c2ccc(Oc3ccccc3)cc2)n1 | < 70% | < 70% | > 70% | 7290 nM |  |  |  |  |  |  |  | 
6 | Cc1cccc(NC(=O)c2ccc(C#N)cc2)n1 | < 70% | < 70% | > 70% | > 10000 nM |  |  |  |  |  |  |  | 
7 | Cc1cccc(NC(=O)c2ccc(-c3cccc4ccccc34)c(C#N)c2)n1 | < 70% | < 70% | > 70% |  | 72 nM | 640 nM |  |  |  |  |  | 
8 | Cc1cccc(C#Cc2ccc(-c3ccc(F)cc3)c(C#N)c2)n1 | < 70% | < 70% | > 70% |  | 3 nM | 7.19 nM |  |  |  |  |  | 
9 | Cc1cccc(NC(=O)c2cc(F)cc(C#N)c2)n1 | < 70% | < 70% | > 70% |  | 65.5 nM | 21.7 nM |  |  |  |  |  | 
10 | Cc1cccc(NC(=O)c2ccc(-c3cccnc3)c(F)c2)n1 | < 70% | < 70% | > 70% |  | 7720 nM | > 3000 nM |  |  |  |  |  | 
11 | Cc1cccc(NC(=O)c2ccc(F)c(F)c2)n1 | < 70% | < 70% | > 70% | > 10000 nM |  |  |  |  |  |  |  | 
12 | Cc1cccc(C#Cc2cccc(C#N)c2)n1 | < 70% | < 70% | > 70% |  | 1.3 nM | 0.415 nM |  |  |  |  |  | 
13 | Cc1nc(C#Cc2cccnc2)cs1 | < 70% | < 70% | < 70% |  |  |  |  |  |  |  |  | 
14 | Cc1cccc(NC(=O)c2cccc(C#N)c2)n1 | < 70% | < 70% | > 70% |  | 330 nM | 490 nM |  |  |  |  |  | 
15 | COc1ccccc1-c1cc(F)cc(C(=O)Nc2cccc(C)n2)c1 | < 70% | < 70% | > 70% |  | > 10000 nM |  |  |  |  |  |  | 
16 | Cc1nc(C#Cc2cc(F)cc(-c3cccnc3)c2)cs1 | < 70% | < 70% | > 70% | 2.7 nM |  | 4.83 nM | > 6000 nM | > 6000 nM | > 6000 nM | > 6000 nM | > 6000 nM | > 6000 nM
17 | Cc1nc(C#Cc2cccc(-c3ccccc3)c2)cs1 | < 70% | < 70% | > 70% |  |  |  |  |  |  |  |  | 
18 | Cc1nc(C#Cc2ccc(-c3ccccc3)nc2)cs1 | < 70% | < 70% | > 70% |  |  |  |  |  |  |  |  | 
19 | Cc1cccc(NC(=O)c2cc(F)cc(-c3ccccc3C)c2)n1 | < 70% | < 70% | > 70% |  | 610 nM |  |  |  |  |  |  | 
20 | Cc1cccc(NC(=O)c2ccc(Br)cc2)n1 | < 70% | < 70% | > 70% | > 10000 nM |  |  |  |  |  |  |  | 
21 | Cc1cccc(C#Cc2ccccc2)n1 | < 70% | < 70% | > 70% |  |  |  |  |  |  |  |  | 
22 | Cc1cccc(NC(=O)c2cc(-c3cc(F)cc(F)c3)ccn2)n1 | < 70% | < 70% | > 70% |  |  | 98.1 nM |  |  |  |  |  | 

Continued, values first:

Row | inhibition [1] | inhibition [2] | inhibition [3] | Ki [4] | Ki [5] | IC50 [6] | Ki [7] | Ki [8] | Ki [9] | Ki [10] | Ki [11] | Ki [12] | Structure (SMILES)
23 | < 70% | < 70% | ≤ 70% | 3330 nM |  |  |  |  |  |  |  |  | Cc1cccc(NC(=O)c2ccc(-c3cccc(Cl)c3)cc2)n1
24 | < 70% | < 70% | ≤ 70% | > 10000 nM |  |  |  |  |  |  |  |  | Cc1cccc(NC(=O)c2ccc(-c3cccc(C#N)c3)cc2)n1
25 | < 70% | < 70% | > 70% |  | 2040 nM | > 1000 nM |  |  |  |  |  |  | Cc1cccc(NC(=O)c2ccc(-c3cccnc3)c(C#N)c2)n1
26 | < 70% | < 70% | > 70% |  |  |  | > 6000 nM | > 6000 nM | > 6000 nM | > 6000 nM | > 6000 nM | > 6000 nM | Cc1cccc(NC(=O)c2ccc(-c3cccc(F)c3)c(C#N)c2)n1
27 | < 70% | < 70% | > 70% |  | 2480 nM | > 3000 nM |  |  |  |  |  |  | Cc1cccc(NC(=O)c2ccc(-c3cccnc3)nc2)n1
28 | < 70% | < 70% | ≤ 70% | 7000 nM |  |  |  |  |  |  |  |  | Cc1cccc(NC(=O)c2ccc(-c3ccccc3)cc2)n1
29 | < 70% | < 70% | > 70% |  | 2780 nM | > 1000 nM |  |  |  |  |  |  | Cc1cccc(NC(=O)c2ccc(-c3cccnc3)c(Cl)c2)n1
30 |  |  |  | 9.8 nM |  | 13.7 nM | > 6000 nM | > 6000 nM | > 6000 nM | > 6000 nM | > 6000 nM | > 6000 nM | Cc1cccc(NC(=O)c2ccc(-c3ccccc3)c(C#N)c2)n1
31 | < 70% | < 70% | > 70% |  | 356 nM | > 3000 nM |  |  |  |  |  |  | Cc1cccc(NC(=O)c2ccc(-c3ccccc3)nc2)n1
32 | < 70% | < 70% | > 70% |  | 1730 nM | 1870 nM |  |  |  |  |  |  | Cc1cccc(NC(=O)c2cccc(Cl)c2)n1
33 | < 70% | < 70% | > 70% |  | 7300 nM |  |  |  |  |  |  |  | Cc1cccc(NC(=O)c2cccc(-c3ccccc3)c2)n1
34 | < 70% | < 70% | > 70% |  | 4920 nM |  |  |  |  |  |  |  | COc1ccccc1-c1cncc(C(=O)Nc2cccc(C)n2)c1
35 | < 70% | < 70% | > 70% |  | 134 nM | 4.57 nM |  |  |  |  |  |  | Cc1cccc(NC(=O)c2ccc(-c3ccc(F)cc3)c(C#N)c2)n1
36 | < 70% | < 70% | > 70% |  | > 10000 nM |  |  |  |  |  |  |  | Cc1cccc(NC(=O)c2cncc(-c3cccnc3)c2)n1
37 | < 70% | < 70% | > 70% |  | 702 nM |  |  |  |  |  |  |  | Cc1cccc(NC(=O)c2cc(F)cc(-c3cccnc3)c2)n1

Reference: ChEMBL document CHEMBL1136938, “Structure-activity relationships comparing N-(6-methylpyridin-yl)-substituted aryl amides to 2-methyl-6-(substituted-arylethynyl)pyridines or 2-methyl-4-(substituted-arylethynyl)thiazoles as novel metabotropic glutamate receptor subtype 5 antagonists” (J Med Chem, 2009)
